According to patent US10112937B2, “P2X7 modulators and methods of use” (Janssen Pharmaceutica NV, priority 2013, dated 2018):
pIC50: −log10 of the molar value.

Tests used:
human P2X7 = human P2X7 (Homo sapiens (Human), UniProt Q99572); assay: P2X7 antagonism in human PBMCs (IL-1β release after LPS + Bz-ATP, ELISA); assay type: cell-based
Procedure: P2X7 Antagonism in Human Peripheral Blood Mononuclear Cells (PBMCs) and Human Whole Blood.
Human blood was collected using a blood donor program. PBMCs were isolated from blood using a Ficoll density gradient technique. Briefly, blood was laid on Ficoll solution and centrifuged at RT for 20 minutes at 2000 rpm. The buffy layer (between red blood cells and plasma) was carefully collected by aspiration, washed with PBS and centrifuged again at 1500 rpm for 15 minutes. The resulting cell pellet was washed and plated on 96 well-plates for experiments. For the Human Whole Blood experiments, 150 μl of human blood was platted on 96 well-plates. Lipopolysaccharide (LPS) (30 ng/ml) was added to each well and incubated for 1 hour. Test compounds were then added and incubated for 30 minutes. The P2X7 agonist, 2′(3′)-O-(4-benzoylbenzoyl) adenosine 5′ triphosphate (Bz-ATP) was then added at a final concentration of 0.5 mM (PBMC) or 1 mM (blood). Cells were incubated for an additional 1.5 hours. At that point, supernatant was collected and stored for IL-1β assay using manufacturer's protocol for enzyme-linked immunosorbent assay (ELISA). Data was expressed as percent control, where control is defined as the difference in IL-1β release in LPS+Bz-ATP samples and LPS only samples. Data was plotted as response (% control) versus concentration to generate IC50 values. […] Data are analyzed and graphed on Graphpad Prism 5. For analysis, each concentration point is averaged from triplicate values and the averaged values are plotted on Graphpad Prism.

rat P2X7 = rat P2X7 (Rattus norvegicus (Rat), UniProt Q64663); assay: Ca2+ flux (FLIPR) in 1321N1 cells expressing recombinant rat P2X7; assay type: cell-based;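 also: Calcium-4 dye fluorescence change read 180 s after agonist addition, with cells preincubated 30 min with compound and dye in 96-well plates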
[1] = human PBMCs, test compound 10 μM
[2] = 1321N1 cells, recombinant rat P2X7, 250 μM BzATP
[3] = 10 μM test compound, human PBMCs, LPS + Bz-ATP

Sequence of human P2X7 (Q99572 whole entry): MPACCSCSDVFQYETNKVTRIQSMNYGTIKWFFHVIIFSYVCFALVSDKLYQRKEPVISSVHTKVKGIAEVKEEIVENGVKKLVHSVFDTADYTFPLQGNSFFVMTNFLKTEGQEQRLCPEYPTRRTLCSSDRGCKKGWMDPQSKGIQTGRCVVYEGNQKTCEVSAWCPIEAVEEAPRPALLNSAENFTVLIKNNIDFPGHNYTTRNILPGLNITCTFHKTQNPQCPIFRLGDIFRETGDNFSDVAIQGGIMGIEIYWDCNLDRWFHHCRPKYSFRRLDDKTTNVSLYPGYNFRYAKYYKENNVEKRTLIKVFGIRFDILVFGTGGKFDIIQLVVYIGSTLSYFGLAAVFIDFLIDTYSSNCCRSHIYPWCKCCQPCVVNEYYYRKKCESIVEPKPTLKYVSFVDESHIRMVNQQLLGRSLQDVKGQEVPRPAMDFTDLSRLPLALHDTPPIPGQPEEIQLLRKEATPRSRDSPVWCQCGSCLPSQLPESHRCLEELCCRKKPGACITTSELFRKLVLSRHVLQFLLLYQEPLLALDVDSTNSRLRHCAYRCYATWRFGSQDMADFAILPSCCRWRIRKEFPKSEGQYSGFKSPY
Sequence of rat P2X7 (Q64663 whole entry): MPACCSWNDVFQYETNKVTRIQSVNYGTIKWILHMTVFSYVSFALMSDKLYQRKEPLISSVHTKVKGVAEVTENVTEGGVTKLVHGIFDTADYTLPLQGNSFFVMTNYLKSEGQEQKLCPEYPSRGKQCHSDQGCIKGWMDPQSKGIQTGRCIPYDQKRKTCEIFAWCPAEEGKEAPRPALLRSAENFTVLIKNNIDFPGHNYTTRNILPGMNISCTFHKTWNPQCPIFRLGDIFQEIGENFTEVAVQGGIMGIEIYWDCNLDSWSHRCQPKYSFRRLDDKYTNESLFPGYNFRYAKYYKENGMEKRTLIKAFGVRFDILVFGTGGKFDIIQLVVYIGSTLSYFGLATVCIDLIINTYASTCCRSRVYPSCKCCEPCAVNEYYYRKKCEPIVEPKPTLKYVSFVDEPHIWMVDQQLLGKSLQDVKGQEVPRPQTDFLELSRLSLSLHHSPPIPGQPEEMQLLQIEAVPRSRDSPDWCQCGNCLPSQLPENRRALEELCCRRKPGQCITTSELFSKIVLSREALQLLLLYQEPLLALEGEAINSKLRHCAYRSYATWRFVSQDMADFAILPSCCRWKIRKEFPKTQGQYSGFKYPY

| pIC50 (rat P2X7; [2]) | PBMC 10 μM (% control) (human P2X7; [3]) | SMILES | also measured |
| --- | --- | --- | --- |
| 5.84 | – | O=C(c1cccc(C(F)(F)F)c1Cl)N1CCc2c(nnn2-c2ccccn2)C1 [Example 63, 5-{[2-Chloro-3-(trifluoromethyl)phenyl]carbonyl}-1-pyridin-2-yl-4,5,6,7-tetrahydro-1H-[1,2,3]triazolo[4,5-c]pyridine] | – |
| – | 97.6 | CC(C)n1ccc(-n2nnc3c2C[C@H](C)N(C(=O)c2ccnc(C(F)(F)F)c2F)C3)n1 [Example 418, (S)-(3-fluoro-2-(trifluoromethyl)pyridin-4-yl)(1-(1-isopropyl-1H-pyrazol-3-yl)-6-methyl-6,7-dihydro-1H-[1,2,3]triazolo[4,5-c]pyridin-5(4H)-yl)methanone] | – |
| – | 0.0 | C[C@H]1Cc2c(nnn2-c2ccsc2)CN1C(=O)c1cccc(C(F)(F)F)c1Cl [Example 420, (S)-(2-chloro-3-(trifluoromethyl)phenyl)(6-methyl-1-(thiophen-3-yl)-6,7-dihydro-1H-[1,2,3]triazolo[4,5-c]pyridin-5(4H)-yl)methanone] | – |
| – | 2.3 | C[C@H]1Cc2c(nnn2-c2ncc(O)cn2)CN1C(=O)c1ccnc(C(F)(F)F)c1F [Example 429, (S)-(3-fluoro-2-(trifluoromethyl)pyridin-4-yl)(1-(5-hydroxypyrimidin-2-yl)-6-methyl-6,7-dihydro-1H-[1,2,3]triazolo[4,5-c]pyridin-5(4H)-yl)methanone] | – |

The remaining lines, values behind:

| SMILES | pIC50 (rat P2X7; [2]) | PBMC 10 μM (% control) (human P2X7; [3]) | also measured |
| --- | --- | --- | --- |
| Cc1nc(-n2nnc3c2CCN(C(=O)c2cccc(C(F)(F)F)c2Cl)C3C)ncc1F (single isomer, unassigned) [Example 306, (S*)-(2-chloro-3-(trifluoromethyl)phenyl)(1-(5-fluoro-4-methylpyrimidin-2-yl)-4-methyl-6,7-dihydro-1H-[1,2,3]triazolo[4,5-c]pyridin-5(4H)-yl)methanone] | 5.22 | – | PBMC 10 μM (% control) (human P2X7; [1]): 2.5 % control; PBMC 10 μM (% control) (human P2X7; test compound 10 μM, LPS 30 ng/ml + 0.5 mM Bz-ATP): 2.5 % control; pIC50 (rat P2X7; 250 μM BzATP, Calcium-4 dye): 5.22 |
| Cc1ccnc(-n2nnc3c2CCN(C(=O)c2ccnc(C(F)(F)F)c2F)[C@@H]3C)c1 (single isomer, unassigned) [Example 356, (R*)-(3-fluoro-2-(trifluoromethyl)pyridin-4-yl)(4-methyl-1-(4-methylpyridin-2-yl)-6,7-dihydro-1H-[1,2,3]triazolo[4,5-c]pyridin-5(4H)-yl)methanone] | 6.92 | – | PBMC 10 μM (% control) (human P2X7; [1]): −5.9 % control |
| CC1c2ncn(-c3cnccn3)c2CCN1C(=O)c1cccc(C(F)(F)F)c1F (stereo not drawn) [Example 14, (2-Fluoro-3-(trifluoromethyl)phenyl)(4-methyl-1-(pyrazin-2-yl)-6,7-dihydro-1H-imidazo[4,5-c]pyridin-5(4H)-yl)methanone] | 6.91 | – | – |
| CCOC(=O)C1c2ncn(-c3ccccc3)c2CCN1C(=O)c1cccc(Cl)c1Cl (stereo not drawn) [Example 27, Ethyl 5-(2,3-dichlorobenzoyl)-1-phenyl-4,5,6,7-tetrahydro-1H-imidazo[4,5-c]pyridine-4-carboxylate] | 5.55 | – | – |
| CN(C)CC1c2ncn(-c3ccccn3)c2CCN1C(=O)c1cccc(C(F)(F)F)c1Cl (stereo not drawn) [Example 31, 1-(5-{[2-Chloro-3-(trifluoromethyl)phenyl]carbonyl}-1-pyridin-2-yl-4,5,6,7-tetrahydro-1H-imidazo[4,5-c]pyridin-4-yl)-N,N-dimethylmethanamine] | 6.48 | – | – |
| CN(C)C(=O)C1c2ncn(-c3ccccn3)c2CCN1C(=O)c1cccc(C(F)(F)F)c1Cl (stereo not drawn) [Example 34, 5-{[2-Chloro-3-(trifluoromethyl)phenyl]carbonyl}-N,N-dimethyl-1-pyridin-2-yl-4,5,6,7-tetrahydro-1H-imidazo[4,5-c]pyridine-4-carboxamide] | 6.55 | – | – |
| CC(C)n1ccc(-n2nnc3c2CCN(C(=O)c2ccnc(C(F)(F)F)c2Cl)[C@H]3C)n1 [Example 417, (S)-(3-chloro-2-(trifluoromethyl)pyridin-4-yl)(1-(1-isopropyl-1H-pyrazol-3-yl)-4-methyl-6,7-dihydro-1H-[1,2,3]triazolo[4,5-c]pyridin-5(4H)-yl)methanone] | – | 112.2 | – |
